Results on 6 molecules are retold here after patent publication US20220280543A1, “DDX17 AND NLRC4 TARGETING FOR INFLAMMATORY DISEASES” (University of Virginia Patent Foundation, priority 2019, published 2022).

Entries after “also recorded” stand apart in the source; their conditions may differ.

In one series the test system is NLRP3/NLRC4 complex. The series can be described thus: Biotin-streptavidin pulldown of biotin-labeled NRTIs with NLRC4/NLRP3, immunoblot. As to conditions: immunoblot (FIG. 33). Format: binding. As for the experimental part: FIG. 33. NRTIs directly bind to NLRP3/NLRC4 complex in a reconstituted system. HEK293 cell were transfected with NLRC4 and NLRP3. Biotin-Labeled NRTIs (D4T, AZT) were added to the HEK cells 4 hours later, and cell pellets were collected for biotin streptavidin pulldown. Binding between NRTIs and NLRC4/NLRP3 was detected by immunoblot. […] The bands of NLRC4 and NLRP3 pulled down with biotinylated NRTI are indicated with black arrows.
Finally, we sought to investigate the mechanism through which NRTIs inhibit NLRC4 inflammasome and asked whether this is NLRP3 dependent. We transfected WT and NLRP3 KO BMDMs with flagellin to examine caspase-1 activation using immunoblot. […] To further confirm the mechanism of action of NRTIs, we investigated whether they directly bind to NLRP3/NLRC4 complex in a reconstituted system. We treated flagellin transfected BMDMs with free and biotin labeled D4T and AZT and pulled down biotin.

For series [1], the system named is RPE degeneration. As to conditions: intraperitoneal administration; previously reported; cited from earlier work.
Another series relates to NLRC4 inflammasome. The series can be described thus: Flagellin-induced caspase-1 activation in wild type BMDM pre-treated with NRTIs, immunoblot. The settings on record: NRTI at 100 μM for 1 hour, flagellin transfection 3 μg/ml (FIG. 27). Format: cell-based, mouse. The protocol: FIG. 27. NRTI block Flagellin induced NLRC4 inflammasome in BMDM. Wild type BMDM cells were pre-treated with exemplary NRTIs (D4T, 3TC) at 100 μM for 1 hour, and then stimulated with flagellin transfection (3 μg/ml). Supernatant and cell lysate were collected for Caspase-1 detection. […] The caspase-1 (p20) bands are indicated with black arrow.
FIG. 28. NRTI (3TC) blocks flagellin-induced NLRC4 inflammasome in a dose dependent manner. Wild type BMDM cell were pre-treated with indicated dose of NRTI (3TC) for 1 hour, and then stimulated with Flagellin transfection (3 μg/ml). Supernatants were collected for Caspase-1 detection. […] The caspase-1 (p20) bands are indicated with black arrow.
FIG. 31. Modified NRTIs (K8, K9) block flagellin-induced NLRC4 inflammasome in BMDM. Wild type BMDM cell were pre-treated with regular NRTI (D4T, 3TC), the modified NRTIs 3-Methyl-3TC (K9) or 2-Ethyl-AZT (K8), or NLRP3 inhibitors (MCC950, CY-09) for 1 hour, and then stimulated with flagellin transfection (3 μg/ml). Supernatants were collected for secreted caspase-1 detection. […] The caspase-1 (p20) bands are indicated with black arrow.
Nucleoside reverse transcriptase inhibitors (NRTIs) are HIV therapeutics that inhibit retrovirus replication. We have previously shown that NRTIs inhibit P2X7-mediated NLRP3 inflammasome activation by an endogenous retroelement Alu RNA (SEQ ID NO: 86). Activation of NLRP3 inflammasome by Alu RNA (SEQ ID NO: 86) causes the death of retinal pigment epithelium (RPE) in geographic atrophy, a severe form of AMD. […] Currently, multiple NLRP3 inflammasome inhibitors such as MCC950, CY09 are available however, there are no inhibitors of NLRC4. So, a need exists to develop inhibitors of NLRC4 inflammasome to study NLRC4 driven diseases. Here, we show for the first time that NRTIs block flagellin induced NLRC4 inflammasome. We pretreated flagellin transfected BMDMs with DT4 and 3TC to examine caspase-1 activation.
NLRC4 oligomerization is another hallmark of inflammasome activation where high-molecular mass NLRC4 protein complexes are assembled. […]
On the technique in general: Immunoblotting shows a protein as a band on a membrane.

Series [2] has as its system RPE degeneration. The series can be described thus: Alu RNA induced RPE degeneration in mice, fundus images and ZO-1 staining. Format: in vivo. As to conditions: mice, subretinal Alu RNA; fundus and ZO-1 (FIGS. 25B, 26). The protocol:
(§1) FIGS. 25A and 25B. NLRC4 knockdown blocks Alu RNA (SEQ ID NO: 86) induced ASC oligomerization and RPE degeneration. Human RPE cell treated with siRNA target on NLRC4 (SMARTPOOL siRNA for NLRC4: CAACUGGGCUCCUCUGUAA; SEQ ID NO: 93) and NAIP (SMARTPOOL siRNA for NAIP: GUAAAGAGCUAUAUGGAUA; SEQ ID NO: 94), 24 hours later, treated with Alu RNA (SEQ ID NO: 86 at 100 pmol) FIG. 25A. […] The band of ASC oligomers was indicated by black arrow. […] The hyperdense areas due to the RPE degeneration in fundus images and ZO-1 disorganizations in RPE sheet are indicated by white arrows.
FIG. 26. […] Wilde type of C57/B6 mice were intravitreally injected with siRNA target on Ddx17 (siRNA for Ddx17: GGCUAGAUGUGGAAGAUGU; SEQ ID NO: 95), and two days later, Nlrc4^−/−, Naip1-6^−/−, mice and Ddx17 knockdown mice were subretinally injected with Alu RNA (SEQ ID NO: 86). […] The hyperdense areas due to the RPE degeneration in fundus images and ZO-1 disorganizations in RPE sheet are indicated by white arrows.
(§2) Next, we asked whether Alu RNA (SEQ ID NO: 86) also triggered NLRC4 inflammasome activation in human RPE cells. We performed immunofluorescence staining experiments to examine whether Alu RNA (SEQ ID NO: 86) can induce NLRC4 speck formation in human RPE cells. We noticed punctate structures resembling specks of NLRC4 in human RPE cells in response to Alu RNA (SEQ ID NO: 86) treatment (FIG. 24A). […] We further investigated downstream events of NLRC4 inflammasome activation by studying NLRC4-induced ASC oligomerization, a critical step involved in caspase-1 cleavage. NLRC4 siRNA, when co-administered with Alu RNA (SEQ ID NO: 86), blocked ASC oligomerization in vitro (FIG. 25A) and RPE degeneration in vivo (FIG. 25B).
We delivered Alu RNA (SEQ ID NO: 86) or Alu RNA (SEQ ID NO: 86)+siDDX17 subretinally in WT or NLRC4 KO or NAIP1-6 KO mice and examined for RPE degeneration using fundus photos and ZO-1 staining as described previously.

The test system of series [3] is ASC oligomerization. The series can be described thus: Alu RNA induced ASC oligomerization in human RPE cells after siRNA knockdown. It counts as cell-based. As to conditions: 24 hours later Alu RNA 100 pmol (FIG. 25A). The protocol:
as §1, §2

The subject of a further series is p-NLRC4 and caspase-1. The series can be described thus: Dicer1 knockdown induced inflammasome activation in BMDM, immunoblot. Format: cell-based, mouse. The source says: FIGS. 20A and 20B. DDX17-NLRC4-NLRP3 are required for Dicer1 knockdown induced inflammasome activation. FIG. 20A. Dicer1 knockdown (siRNA for Dicer 1: GCAGUUGUCCUAAACAGAU; SEQ ID NO: 92) causes increase of p-NLRC4 and caspase-1 activation, which were blocked in Ddx17^−/− iBMDMs. FIG. 20B. Dicer1 knockdown-induced caspase-1 cleavage was impaired in Nlrc4^−/− and Nlrp3^−/− BMDMs. The caspase-1 (p20) bands are indicated with black arrows.
We have previously shown that DICER deficiency mediated accumulation of Alu RNA induces NLRP3 inflammasome activation. So we examined whether DICER knockdown could also induce DDX17-NLRC4-NLRP3 signaling. WT and DDX17 KO BMDMs were transfected with siDICER to examine NLRC4 phosphorylation and caspase-1. […] We then determined phosphorylation of NLRC4 and caspase-1 activation in WT, NLRC4 KO and NLRP3 KO BMDMs after transfection with siDICER or sicontrol.

The next series relates to IL-1β. The series can be described thus: Alu RNA induced IL-1β release in THP1 cells after siRNA knockdown, ELISA. Format: cell-based, human. As to conditions: siRNA knockdown (FIG. 12B). The text has this: (§3) FIGS. 12A and 12B. DDX17 knockdown blocks Alu RNA (SEQ ID NO: 86) induced ASC oligomerization and IL-1β release. FIG. 12A. siRNA mediated DDX17 knockdown (siRNA for DDX17: CCAAUCUGAUGUAUCAGGA; SEQ ID NO: 91), but not Ddx5 (siRNA for DDX5: GGAAAUUACAGUUAGAGGU; SEQ ID NO: 89) in THP1 cells, blocked Alu RNA (SEQ ID NO: 86) induced ASC oligomerization. The band of ASC oligomers were indicated by black arrow. FIG. 12B. siRNA mediated DDX17 knockdown, but not Ddx5 in THP1 cells, blocked Alu RNA (SEQ ID NO: 86) induced IL-1β release.
(§4) To further confirm that DDX17 is the sensor for NLRC4, we investigated caspase-1 cleavage by immunoblotting and IL-1β secretion by ELISA in Alu RNA (SEQ ID NO: 86) or mock treated THP1 cells and DDX17 KO BMDMs respectively.
In general terms: In an ELISA, binding on a coated surface is turned into a signal by an enzyme label.

The test system of series [4] is ASC oligomerization. The series can be described thus: Alu RNA induced ASC oligomerization in THP1 cells after siRNA knockdown. It counts as cell-based, human. The settings on record: siRNA knockdown (FIG. 12A).
From the text: as §3, §4

Series [5] has as its target T1, mouse NLR family CARD domain containing 4 (Nlrc4) (mouse, UniProt Q3UP24 1-1024).
T1 construct: Endogenous protein of mouse BMDM / iBMDM
The series can be described thus: immunofluorescence of endogenous ASC specks and NLRC4 puncta in SINE RNA-transfected BMDMs. As for the experimental part:
FIGS. 3A and 3B. SINE RNA-induced ASC oligomerization is dependent on NLRC4 (BMDM). FIG. 3A. Immunofluorescence images of endogenous ASC specks and NLRC4 puncta in BMDMs after transfected with Alu (SEQ ID NO: 86) or B2 (SEQ ID NO: 88) RNA or transfection reagents only (Mock). […] Moreover, NLRC4 proteins assembled as puncta, and co-resided with ASC specks. FIG. 3B. ASC oligomerizations were evaluated in wild-type and Nlrc4^{-/-} BMDMs through cross-linking and western blot. […] The bands of oligomeric ASC protein were indicated by black arrow.
The activated NLRC4 inflammasome undergoes oligomerization by assembling into high-molecular mass multiprotein complexes. We first investigated in situ assembling of NLRC4 and apoptosis speck (ASC) like protein complexes in response to SINE RNA treatment of BMDMs. Immunofluorescence studies show increased NLRC4 and ASC specks in SINE RNA-treated BMDMs compared to mock-treated cells (FIG. 3A). To assess NLRC4 inflammasome assembly, WT and NLRC4 KO BMDM cells were treated with Alu RNA (SEQ ID NO: 86). Disuccinimidyl suberate (DSS) cross-linked lysates were resolved using denaturing SDS-PAGE to detect ASC oligomers and cell lysates were resolved using native polyacrylamide gel electrophoresis (NATIVE-PAGE) to detect NLRC4 oligomerization. […] NLRC4/ASC oligomerization is essential for the cleavage of pro-caspase-1 into its active form p20 and IL-1β release.

T1 sequence (Q3UP24 whole entry, the tested form may be a part): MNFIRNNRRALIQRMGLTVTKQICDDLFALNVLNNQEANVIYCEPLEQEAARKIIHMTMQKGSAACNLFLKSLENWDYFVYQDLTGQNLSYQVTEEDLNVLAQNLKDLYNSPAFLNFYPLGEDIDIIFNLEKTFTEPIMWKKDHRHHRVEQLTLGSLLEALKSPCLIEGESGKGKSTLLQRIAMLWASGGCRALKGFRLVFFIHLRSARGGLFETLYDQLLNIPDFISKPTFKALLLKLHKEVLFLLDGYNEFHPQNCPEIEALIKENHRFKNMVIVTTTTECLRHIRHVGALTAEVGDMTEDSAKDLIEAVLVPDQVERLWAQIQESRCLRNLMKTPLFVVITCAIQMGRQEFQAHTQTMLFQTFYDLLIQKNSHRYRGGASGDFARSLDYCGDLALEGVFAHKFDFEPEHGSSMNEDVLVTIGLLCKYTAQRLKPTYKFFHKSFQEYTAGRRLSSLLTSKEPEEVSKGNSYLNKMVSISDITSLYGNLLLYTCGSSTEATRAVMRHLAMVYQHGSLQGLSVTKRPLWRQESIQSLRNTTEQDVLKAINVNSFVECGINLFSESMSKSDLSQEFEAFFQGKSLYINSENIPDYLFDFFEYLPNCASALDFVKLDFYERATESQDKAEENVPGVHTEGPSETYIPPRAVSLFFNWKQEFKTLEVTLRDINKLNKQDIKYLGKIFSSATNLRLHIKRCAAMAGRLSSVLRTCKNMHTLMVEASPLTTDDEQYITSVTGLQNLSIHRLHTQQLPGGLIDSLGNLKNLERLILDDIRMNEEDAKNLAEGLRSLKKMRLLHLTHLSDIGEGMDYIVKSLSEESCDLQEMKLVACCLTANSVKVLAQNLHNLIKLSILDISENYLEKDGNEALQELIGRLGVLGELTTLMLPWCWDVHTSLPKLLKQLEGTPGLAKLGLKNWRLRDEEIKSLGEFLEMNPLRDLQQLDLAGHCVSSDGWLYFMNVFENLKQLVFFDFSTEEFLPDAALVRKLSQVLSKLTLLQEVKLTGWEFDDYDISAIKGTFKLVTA

As for `Cc1cn([C@H]2C[C@H](N=[N+]=[N-])[C@@H](CO)O2)c(=O)[nH]c1=O` [AZT, 3′-deoxy-3′-azidothymidine 1-[(2R,4S,5S)-4-Azido-5-(hydroxymethyl)oxolan-2-yl]-5-methylpyrimidine-2,4-dione], the “binding of biotin-labeled NRTI to NLRC4 and NLRP3” value with NLRP3/NLRC4 complex was “interacted with NLRP3 and NLRC4; also recorded: could directly bind to NLRC4 and NLRP3 protein”. Moreover, the “Alu RNA induced RPE degeneration in mice” value in the series on RPE degeneration [1] was “prevented”.

Turning to `Cc1cn([C@H]2C=C[C@@H](CO)O2)c(=O)[nH]c1=O` [D4T, 1-[(2R,5S)-5-(hydroxymethyl)-2,5-dihydrofuran-2-yl]-5-methyl-1,2,3,4-tetrahydropyrimidine-2,4-dion], the “binding of biotin-labeled NRTI to NLRC4 and NLRP3” value with NLRP3/NLRC4 complex is “interacted with NLRP3 and NLRC4; also recorded: could directly bind to NLRC4 and NLRP3 protein”. In addition, the “Alu RNA induced RPE degeneration in mice” value in the series on RPE degeneration [1] is on record as “prevented”. Further, the “flagellin induced caspase-1 activation” value in the series on NLRC4 inflammasome is listed as “blocked; also recorded: reduced”.

Take “NLRC4 siRNA: SMARTPOOL siRNA for NLRC4: CAACUGGGCUCCUCUGUAA; SEQ ID NO: 93 (listed as RNA, chemistry not given here)”: the “Alu RNA induced RPE degeneration in vivo, effect of siRNA” value in the series with RPE degeneration [2] was “blocked”. Besides, the “Alu RNA induced ASC oligomerization, human RPE cells” value in the series with ASC oligomerization [3] was “blocked”; in the series on ASC oligomerization [3] (listed as SMARTPOOL siRNA for NLRC4), “reduced”.

As to “siDICER: siRNA for Dicer 1: GCAGUUGUCCUAAACAGAU; SEQ ID NO: 92 (listed as RNA, chemistry not given here)”, the “phosphorylation of NLRC4 after Dicer1 knockdown” value in the series on p-NLRC4 and caspase-1 (WT BMDMs (FIG. 20A)) is on record as “induced the phosphorylation of NLRC4”. Also, the “caspase-1 activation after Dicer1 knockdown” value with p-NLRC4 and caspase-1 (WT BMDMs (FIG. 20B)) is given as “induced the activation of caspase-1”.

As to “siRNA for Ddx17: siRNA for Ddx17: GGCUAGAUGUGGAAGAUGU; SEQ ID NO: 95, injected in mice (chemistry not fully specified)”, in the series with IL-1β, the “Alu RNA induced IL-1β release, THP1 cells, ELISA” value is “blocked”. The “Alu RNA induced RPE degeneration in vivo, effect of siRNA” value in the series with RPE degeneration [2] is listed as “blocked”. The “Alu RNA induced ASC oligomerization, THP1 cells” value in the series with ASC oligomerization [4] was “blocked”.

B1: mouse apoptosis-associated speck-like protein containing a CARD (ASC) (other, UniProt Q9EPB4 1-193, looked up)
chain: MGRARDAILDALENLSGDELKKFKMKLLTVQLREGYGRIPRGALLQMDAIDLTDKLVSYYLESYGLELTMTVLRDMGLQELAEQLQTTKEESGAVAAAASVPAQSTARTGHFVDQHRQALIARVTEVDGVLDALHGSVLTEGQYQAVRAETTSQDKMRKLFSFVPSWNLTCKDSLLQALKEIHPYLVMDLEQS
notes: Endogenous protein of mouse BMDM
For the molecule B1, the binding result in series [5] is “binds”.
